Results taken from paper PMC10245146, “CNS4 causes subtype‐specific changes in agonist efficacy and reversal potential of permeant cations in NMDA receptors” (Pharmacology Research & Perspectives, 2023).

How the values were obtained:
[1] = target: T1, E781A_1/2A mutant receptor (UniProt P35439+Q12879, E781A); assay: TEVC glutamate dose-response, GluN1 E781A mutant with wild type GluN2A; format: cell-based; set-up: Glutamate efficacy: unit not given here
T1 construct: expressed in transfected cells; host or cells: Xenopus oocytes (cRNA injection)
T1 sequence (Q12879 23-1464, other chains not shown): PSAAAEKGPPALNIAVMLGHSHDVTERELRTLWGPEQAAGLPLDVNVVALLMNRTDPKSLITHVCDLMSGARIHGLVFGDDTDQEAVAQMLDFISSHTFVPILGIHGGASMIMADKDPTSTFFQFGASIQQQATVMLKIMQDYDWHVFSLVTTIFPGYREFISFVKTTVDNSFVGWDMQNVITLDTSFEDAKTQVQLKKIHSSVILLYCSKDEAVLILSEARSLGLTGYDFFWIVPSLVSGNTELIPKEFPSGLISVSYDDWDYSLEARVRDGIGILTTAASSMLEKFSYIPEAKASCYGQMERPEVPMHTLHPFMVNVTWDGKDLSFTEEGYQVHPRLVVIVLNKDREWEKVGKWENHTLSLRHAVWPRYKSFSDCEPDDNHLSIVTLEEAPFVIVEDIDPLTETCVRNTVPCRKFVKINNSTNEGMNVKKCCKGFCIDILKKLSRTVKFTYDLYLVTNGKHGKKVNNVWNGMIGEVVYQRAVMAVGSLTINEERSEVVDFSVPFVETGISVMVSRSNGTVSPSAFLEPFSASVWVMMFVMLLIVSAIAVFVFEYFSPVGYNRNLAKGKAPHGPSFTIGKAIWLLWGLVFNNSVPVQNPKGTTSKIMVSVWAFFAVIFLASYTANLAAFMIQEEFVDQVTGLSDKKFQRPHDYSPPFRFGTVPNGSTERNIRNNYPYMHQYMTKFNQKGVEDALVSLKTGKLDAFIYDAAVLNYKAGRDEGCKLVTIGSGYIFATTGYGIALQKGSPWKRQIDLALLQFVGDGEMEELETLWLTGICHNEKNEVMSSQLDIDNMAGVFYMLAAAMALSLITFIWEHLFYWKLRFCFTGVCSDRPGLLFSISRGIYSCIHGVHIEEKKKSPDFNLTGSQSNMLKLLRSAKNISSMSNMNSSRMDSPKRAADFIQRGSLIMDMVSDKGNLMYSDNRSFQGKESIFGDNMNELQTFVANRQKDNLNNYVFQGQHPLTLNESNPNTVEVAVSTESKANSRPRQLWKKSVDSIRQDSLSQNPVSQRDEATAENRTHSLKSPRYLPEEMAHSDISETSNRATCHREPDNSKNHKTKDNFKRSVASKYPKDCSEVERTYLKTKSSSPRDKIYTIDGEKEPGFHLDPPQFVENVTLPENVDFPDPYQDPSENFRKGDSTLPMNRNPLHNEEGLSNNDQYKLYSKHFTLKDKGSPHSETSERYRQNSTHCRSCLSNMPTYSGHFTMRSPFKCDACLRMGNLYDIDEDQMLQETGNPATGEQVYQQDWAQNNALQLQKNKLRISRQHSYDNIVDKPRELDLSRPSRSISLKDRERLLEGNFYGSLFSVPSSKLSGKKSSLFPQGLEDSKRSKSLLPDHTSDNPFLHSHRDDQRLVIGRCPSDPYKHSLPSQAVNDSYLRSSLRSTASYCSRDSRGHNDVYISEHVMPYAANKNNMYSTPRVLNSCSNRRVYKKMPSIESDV
Description: NMDA receptor constructs: cDNA encoding the NMDA receptor1a subunit (GluN1a) was obtained from Dr. Nakanishi (Kyoto, Japan). cDNA encoding the GluN2B (pci_sepGluN2B), originally developed in the Malinow lab,[33] was purchased from Addgene (cat# 23998), Cambridge, MA. cDNA encoding the GluN2C and GluN2D were purchased from GenScript, New Jersey, USA. Mutated GluN1, 2A and 2B cDNA constructs capable of assembling as GluN1/2A/2B triheteromeric (1/2AB) receptors[34] were obtained from Dr. Paoletti (Laboratoire de Neurobiologie, CNRS). These constructs have been previously tested for 1/2AB receptor activity of GluN1/2A receptor‐selective potentiators.[35] […] Plasmids were linearized with NotI (GluN1a and all five GluN1 mutants) or Avrll (GluN2B), or BstB1 (GluN2C and GluN2D) and transcribed in vitro with T7 (GluN1a, GluN1/2A, GluN2B, GluN2C & GluN2D), and SP6 (GluN1 mutants) RNA polymerase using the mMessage mMachine transcription kits (Invitrogen by Thermo Fisher Scientific).
Electrophysiological responses were measured using a standard two‐microelectrode voltage‐clamp workstation (Warner Instruments model OC‐725C) designed to provide a fast clamp of large cells. The recording buffer contained 116 mM NaCl, 2 mM KCl, 0.3 mM BaCl2, and 5 mM HEPES, pH 7.4. Response magnitude was determined in Xenopus oocytes expressing different NMDA receptor subunits (GluN1/2A, 1/2B, 1/2C, 1/2D, and 1/2A/2B) by the steady plateau response elicited by bath application of different agonist concentrations. […] All data points were obtained from the steady state currents unless stated otherwise. Dose–response relationships were fit to an appropriate curve‐fitting equation using GraphPad Prism‐7. Non‐linear regression was used to calculate EC50, IC50, and fold change or percentage maximal response. Curves were fit using the following equations as performed in the previous studies, [37]: Y=100/1+10^LogEC50−XorY=Bottom+Top−Bottom/1+10^LogEC50−X . Statistical significance was determined at the overall alpha level 0.05, using appropriate statistical methods as described in all figure captions. […]

GluN1/2A NMDA receptors = target: T2, GluN1/2A NMDA receptors (UniProt P35439+Q12879); assay: Current-voltage (I-V) relationship, Xenopus oocytes expressing 1/2A; format: cell-based; conditions: for Difference in reversal potential (∆Erev) between W and WO CNS4 / Difference in reversal potential (∆Erev) between WO and W CNS4: 100 μM CNS4; for Reversal potential (Erev): with 100 μM CNS4
T2 construct: expressed in transfected cells; host or cells: Xenopus oocytes (cRNA injection)
T2 sequence (Q12879 23-1464, other chains not shown): as above
Method: There are two sets of recording solutions used for the I‐V assay: solutions with normal (1) and low (2) Ca^2+ concentrations. The normal Ca^2+ solutions contained (mM): 115 NaCl, 1 KCl, 1.8 CaCl2, 10 HEPES. PH was adjusted to 7.2. Low calcium solutions contained 0.018 mM CaCl2 and other components were the same as normal Ca^2+ solution. To study the effects of CNS4 in the absence of extracellular Na^+, NaCl was replaced with impermeable agent, N‐methyl‐D‐glucamine (NMDG, […]). HCl was used to dissolve the NMDG and to adjust the PH to 7.2. NMDG‐containing solutions are termed Nafree. […] There were four different agonist solutions used for each set of Ca^2+ recordings: (1) Agonist, (2) Agonist+CNS4, (3) Agonist in Nafree solution, (4) Agonist+CNS4 in Nafree solution. Each solution was applied to the oocytes in sequential order and the same order was followed for all I‐V recordings. Low Ca^2+ experiments were carried out in the same way as normal Ca^2+ experiments, except that they had 0.018 mM Ca^2+ in all four agonist and recording solutions. Steady state current responses evoked by these solutions at each voltage step were measured. Reversal potentials (Erev) were obtained from x‐intercept values when y = 0 after fitting the I‐V data using a third order polynomial, non‐linear curve fitting equation Y=B0+B1^*X+B2^*X^2+B3^*X^3 . Erev obtained from each oocyte with different agonists were compared in a pairwise manner. These differences were then averaged. Paired or unpaired student t‐test was performed to compare the data as mentioned in each figure legend.
FIGURE 5 Effect on CNS4 on agonist induced current directions in 1/2A receptors. Current –Voltage (I‐V) relationship of 1/2A receptors was studied with normal (A) and low (B) CaCl2 containing extracellular solutions. […] (C) Comparison of reversal potentials values. Dark and light blue circles indicate normal and low CaCl2 experiments, respectively. Dark and light red squares indicate equivalent I‐V experiments with NMDG (Nafree). Dotted and thick lines denote the absence (empty circles or squares) and presence (filled circles or squares) of 100 μM CNS4, respectively. Traces (Ai&ii, Bi&ii) represent the current response at −90 mv. N = 5 (5) & n = 7(7) for normal & low Ca^2+ assays, respectively. Erev obtained from each oocyte with different agonists were compared in a pairwise manner. Paired student t‐test was performed to compare the data presented at Ci. Unpaired student's t‐test was performed to compare the difference in reversal potentials (triangles). *p < .05, **p < .01, ***p < .001, […].

O=C(NC(=S)N1CCCCC1c1cccnc1)c1ccc(F)cc1 (stereo not shown) [CNS4]
Glutamate efficacy, E781A mutant compared to wild type 1/2A ([1]; absence of glycine, presence of CNS4, 100 μM glutamate): ~ 34 fold
100 μM glutamate induced relative current amplitude (glutamate efficacy) ([1]; absence of glycine, presence of CNS4, n = 6 (3), p = .001 vs wild type): 1.39 ± 0.29 fold
Glutamate efficacy ([1]; in the presence of 30 μM glycine and 30 μM CNS4, n = 5 (4), p = .11 vs wild type): 118.5 ± 40.87
Difference in reversal potential (∆Erev) between W and WO CNS4 (GluN1/2A NMDA receptors; low Ca2+, Nafree, n = 7): −7.32 ± 3.95 mV
Difference in reversal potential (∆Erev) between W and WO CNS4 (GluN1/2A NMDA receptors; low Ca2+, with Na+, n = 6): 8.76 ± 3.15 mV
Difference in reversal potential (∆Erev) between WO and W CNS4 (GluN1/2A NMDA receptors; normal Ca2+, Nafree, n = 3): −6.79 ± 1.98 mV
Difference in reversal potential (∆Erev) between WO and W CNS4 (GluN1/2A NMDA receptors; normal Ca2+, with Na+, n = 4): 24.85 ± 3.26 mV
Reversal potential (Erev) (GluN1/2A NMDA receptors; 1.8 mM (normal) Ca2+, with Na+, 100 μM glutamate + glycine, without CNS4 −12.05 ± 8.18, p = .004): 10.49 ± 8.23 mV
Reversal potential (Erev) (GluN1/2A NMDA receptors; low Ca2+, Nafree, without CNS4 −61.38 ± 3.99, p = .113): −68.71 ± 4.82 mV
Reversal potential (Erev) (GluN1/2A NMDA receptors; normal Ca2+, Nafree (NMDG), without CNS4 −18.16 ± 5.09, p = .16): −32.93 ± 7.03 mV
